Test results as given in PubChem BioAssay (NCI).
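Test compounds were applied to cells in 96-well plates for 48 hours at 5 doses. GI50 marks 50% less growth. TGI marks complete inhibition of growth.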

How the values were obtained:
Test in all cases: DTP human tumour cell line panel, 48 h; in the data active = GI50 below about 0.43 µM; inactive = the rest
TK-10 renal = tested on: TK-10 renal
OVCAR-8 ovarian = tested on: OVCAR-8 ovarian
MDA-MB-435 = tested on: MDA-MB-435
CAKI-1 renal = tested on: CAKI-1 renal
RPMI-8226 leukemia = tested on: RPMI-8226 leukemia
SN12C renal = tested on: SN12C renal
OVCAR-3 ovarian = tested on: OVCAR-3 ovarian
MCF7 breast = tested on: MCF7 breast
BT-549 breast = tested on: BT-549 breast
SF-268 CNS = tested on: SF-268 CNS
A498 renal = tested on: A498 renal
SNB-19 CNS = tested on: SNB-19 CNS
NCI-H522 lung = tested on: NCI-H522 lung
HS 578T breast = tested on: HS 578T breast
MALME-3M melanoma = tested on: MALME-3M melanoma
KM12 colon = tested on: KM12 colon
UACC-62 melanoma = tested on: UACC-62 melanoma
IGROV1 ovarian = tested on: IGROV1 ovarian
SK-MEL-5 melanoma = tested on: SK-MEL-5 melanoma
SR leukemia = tested on: SR leukemia
DU-145 prostate = tested on: DU-145 prostate
NCI-H226 lung = tested on: NCI-H226 lung
HL-60(TB) leukemia = tested on: HL-60(TB) leukemia
T-47D breast = tested on: T-47D breast
SW-620 colon = tested on: SW-620 colon
HOP-92 NSCLC = tested on: HOP-92 NSCLC
SNB-75 CNS = tested on: SNB-75 CNS
SF-539 CNS = tested on: SF-539 CNS
UACC-257 melanoma = tested on: UACC-257 melanoma
MDA-MB-231 breast = tested on: MDA-MB-231 breast
HCT-15 colon = tested on: HCT-15 colon
CCRF-CEM leukemia = tested on: CCRF-CEM leukemia
HOP-62 NSCLC = tested on: HOP-62 NSCLC
OVCAR-5 ovarian = tested on: OVCAR-5 ovarian
COLO 205 colon = tested on: COLO 205 colon
MOLT-4 leukemia = tested on: MOLT-4 leukemia
NCI/ADR-RES ovarian = tested on: NCI/ADR-RES ovarian
M14 melanoma = tested on: M14 melanoma
NCI-H23 lung = tested on: NCI-H23 lung
K-562 leukemia = tested on: K-562 leukemia
SK-OV-3 ovarian = tested on: SK-OV-3 ovarian
SK-MEL-28 melanoma = tested on: SK-MEL-28 melanoma
LOX IMVI melanoma = tested on: LOX IMVI melanoma
A549 NSCLC = tested on: A549 NSCLC
ACHN renal = tested on: ACHN renal
HT29 colon = tested on: HT29 colon
NCI-H460 lung = tested on: NCI-H460 lung
SF-295 CNS = tested on: SF-295 CNS
HCT-116 colon = tested on: HCT-116 colon
UO-31 renal = tested on: UO-31 renal
OVCAR-4 ovarian = tested on: OVCAR-4 ovarian
SK-MEL-2 melanoma = tested on: SK-MEL-2 melanoma
786-0 renal = tested on: 786-0 renal
HCC-2998 colon = tested on: HCC-2998 colon
PC-3 prostate = tested on: PC-3 prostate

Cc1[nH]c2ccccc2c(=O)c1CC=C(Cl)Cl
inactive: GI50 (TK-10 renal) 25.5 µM | GI50 (OVCAR-8 ovarian) 66.6 µM | GI50 (MDA-MB-435) > 100 µM | GI50 (CAKI-1 renal) 63.9 µM | GI50 (RPMI-8226 leukemia) 84.4 µM | GI50 (SN12C renal) 50.3 µM | GI50 (OVCAR-3 ovarian) 43.5 µM | GI50 (MCF7 breast) 58 µM | GI50 (BT-549 breast) 47 µM | GI50 (SF-268 CNS) 31.2 µM | GI50 (A498 renal) 14.5 µM | GI50 (SNB-19 CNS) 25.7 µM | GI50 (NCI-H522 lung) 24.6 µM | GI50 (HS 578T breast) 24.6 µM | GI50 (MALME-3M melanoma) > 100 µM | GI50 (KM12 colon) > 100 µM | GI50 (UACC-62 melanoma) 34.5 µM | GI50 (IGROV1 ovarian) 64.2 µM | GI50 (SK-MEL-5 melanoma) 27.5 µM | GI50 (SR leukemia) 58.1 µM | GI50 (DU-145 prostate) 88.2 µM | GI50 (NCI-H226 lung) 25.9 µM | GI50 (HL-60(TB) leukemia) > 100 µM | GI50 (T-47D breast) 29 µM | GI50 (SW-620 colon) > 100 µM | GI50 (HOP-92 NSCLC) 15 µM | GI50 (SNB-75 CNS) 10.6 µM | GI50 (SF-539 CNS) 39.4 µM | GI50 (UACC-257 melanoma) 57 µM | GI50 (MDA-MB-231 breast) 31 µM | GI50 (HCT-15 colon) > 100 µM | GI50 (CCRF-CEM leukemia) > 100 µM | GI50 (HOP-62 NSCLC) 24.1 µM | GI50 (OVCAR-5 ovarian) > 100 µM | GI50 (COLO 205 colon) > 100 µM | GI50 (MOLT-4 leukemia) 82.3 µM | GI50 (NCI/ADR-RES ovarian) 44.2 µM | GI50 (M14 melanoma) > 100 µM | GI50 (NCI-H23 lung) 50.6 µM | GI50 (K-562 leukemia) 99.2 µM | GI50 (SK-OV-3 ovarian) 24.2 µM | GI50 (SK-MEL-28 melanoma) 52.9 µM | GI50 (LOX IMVI melanoma) > 100 µM | GI50 (A549 NSCLC) 49.4 µM | GI50 (ACHN renal) 37.3 µM | GI50 (HT29 colon) > 100 µM | GI50 (NCI-H460 lung) 72.5 µM | GI50 (SF-295 CNS) 32 µM | GI50 (HCT-116 colon) 45.3 µM | GI50 (UO-31 renal) 42.8 µM | GI50 (OVCAR-4 ovarian) 18.6 µM | GI50 (SK-MEL-2 melanoma) 28.4 µM | GI50 (786-0 renal) 35.3 µM | GI50 (HCC-2998 colon) > 100 µM | GI50 (PC-3 prostate) 99.9 µM
99.3 µM: TGI (TK-10 renal)
70.3 µM: TGI (HOP-92 NSCLC)
37.5 µM: TGI (SNB-75 CNS)
55.6 µM: TGI (SK-OV-3 ovarian)
> 100 µM: TGI (OVCAR-8 ovarian) | TGI (MDA-MB-435) | TGI (CAKI-1 renal) | TGI (RPMI-8226 leukemia) | TGI (SN12C renal) | TGI (OVCAR-3 ovarian) | TGI (MCF7 breast) | TGI (BT-549 breast) | TGI (SF-268 CNS) | TGI (SNB-19 CNS) | TGI (NCI-H522 lung) | TGI (HS 578T breast) | TGI (MALME-3M melanoma) | TGI (KM12 colon) | TGI (UACC-62 melanoma) | TGI (IGROV1 ovarian) | TGI (SK-MEL-5 melanoma) | TGI (SR leukemia) | TGI (DU-145 prostate) | TGI (NCI-H226 lung) | TGI (HL-60(TB) leukemia) | TGI (T-47D breast) | TGI (SW-620 colon) | TGI (SF-539 CNS) | TGI (UACC-257 melanoma) | TGI (MDA-MB-231 breast) | TGI (HCT-15 colon) | TGI (CCRF-CEM leukemia) | TGI (OVCAR-5 ovarian) | TGI (COLO 205 colon) | TGI (MOLT-4 leukemia) | TGI (NCI/ADR-RES ovarian) | TGI (M14 melanoma) | TGI (NCI-H23 lung) | TGI (K-562 leukemia) | TGI (SK-MEL-28 melanoma) | TGI (LOX IMVI melanoma) | TGI (A549 NSCLC) | TGI (ACHN renal) | TGI (HT29 colon) | TGI (NCI-H460 lung) | TGI (SF-295 CNS) | TGI (HCT-116 colon) | TGI (UO-31 renal) | TGI (SK-MEL-2 melanoma) | TGI (786-0 renal) | TGI (HCC-2998 colon) | TGI (PC-3 prostate)
86.8 µM: TGI (A498 renal)
64.5 µM: TGI (HOP-62 NSCLC)
79.9 µM: TGI (OVCAR-4 ovarian)
